Where two headings read alike, the source gives them in different places. One block for each molecule: values may come before it. Where a SMILES comes first, the peptide text is derived from it. Bridges are numbered along the chain shown (N, C = ends).
Tests used:
[1] = molecular target: T1, human MCH receptor (Homo sapiens, UniProt Q99705); assay: Radiolabeled MCH-R binding assay: inhibition of [125I]-human MCH (Phe13, Tyr19 substituted) binding to cell membranes (filter or SPA format); parameters: expressed in transfected cells; conditions: read-out: Activity IC50
Procedure: Cell membranes were prepared on ice. Each T-75 flask was rinsed twice with 10 ml of Enzyme-free Cell Dissociation Buffer (Specialty Media, Lavallette, N.J.), and the cell monolayer was detached in an additional 10 ml of Enzyme-free Cell Dissociation Buffer by incubation at room temperature for 10 minutes. Dissociated cells were centrifuged (500×g for 10 minutes at 4° C.), resuspended in 5 ml homogenization buffer (10 mM Tris-HCl, pH 7.4, 0.01 mM Pefabloc, 10 μM phosphoramidon, 40 μg/ml bacitracin) and then homogenized using a glass homogenizer (10–15 strokes). The homogenate was centrifuged for 10 minutes (1,000×g at 4° C.). The resulting supernatant was then centrifuged at 38,700×g for 15 minutes at 4° C. Pelleted membranes were resuspended (passed through 25 gauge needle 5 times), snap-frozen on liquid nitrogen, and stored at −80° C. until use.
Binding was performed in a 96-well filter assay or Scintillation Proximity Assay (SPA)-based format using cell membranes from a stable CHO or HEK-293 cell line expressing the MCH receptor. For the filter assay, reactions were performed at 20° C. for 1 hour in a total volume of 0.2 ml containing: 0.05 ml of membrane suspension (˜3 μg protein), 0.02 ml of [^125I]-human MCH (Phe^13, Tyr^19 substituted; 30 pM), 0.01 ml of competitor and 0.12 ml of binding buffer (50 mM Tris-HCl, pH 7.4, 10 mM MgCl2, 2 mM EDTA, 200 μg/ml bacitracin, 1 μM phosphoramidon).
Bound radioligand was separated by rapid vacuum filtration (Packard Filtermate 96-well cell harvester) through GF/C filters pretreated for 1 hour with 1% polyethylenimine. After application of the membrane suspension to the filter, the filters were washed 3 times with 3 ml each of ice-cold 50 mM Tris-HCl, pH 7.4, 10 mM MgCl2, 2 mM EDTA, 0.04% Tween 20 and the bound radioactivity on the filters was quantitated by scintillation counting (TopCount device).
For the SPA-based assay, WGA-PVT beads (NEN Life Sciences Products) were resuspended in Dulbecco's PBS with calcium and magnesium (500 mg beads in 4 ml PBS). For each 96-well assay plate, 0.18 ml of beads was pre-coated with MCH receptor by mixing with 0.2 ml MCH receptor CHO cell membranes (˜0.2–4 mg protein) and 1.5 ml SPA assay buffer (50 mM Tris-HCl, pH 7.4, 10 mM MgCl2, 2 mM EDTA, 0.1% BSA, 12% glycerol). The suspension was mixed gently for 20 minutes, 12.3 ml of assay buffer and protease inhibitors were added (final concentration given): 2 μg/ml leupeptin, 10 μM phosphoramidon, 40 μg/ml bacitracin, 5 μg/ml aprotinin, 0.1 mM Pefabloc.
Coated beads were kept on ice until use. For each well, 0.145 ml of beads were added to Optiplate assay plates (Packard 6005190), followed by 0.002–0.004 ml of competitor and 0.05 ml of [^125I]-human MCH (Phe^13, Tyr^19 substituted; 30 pM). Binding reactions were allowed to proceed at room temperature for 3 hours. Quantitation was performed by scintillation counting (TopCount device).

[2] = molecular target: T1, human MCH receptor; assay: Aequorin bioluminescence functional assay in 293-AEQ17 cells transfected with human MCH receptor; assay type: cell-based; parameters: expressed in transfected cells; host or cells: 293-AEQ17 (aequorin-expressing HEK-293 reporter line), transient lipofectamine transfection, pcDNA-3 vector; Activity Activation %: concentration or dose not given beside the values; conditions: for % Activation at 10 μM: Table 1, aequorin functional assay
Procedure: The aequorin bioluminescence assay is a reliable test for measuring the activity of G protein-coupled receptors that couple through the Gα protein subunit family consisting of Gq and Gll and leads to the activation of phospholipase C, mobilization of intracellular calcium and activation of protein kinase C.
Following approximately 40 hours of expression the apo-aequorin in the cells was charged for 4 hours with coelenterazine (10 μM) under reducing conditions (300 μM reduced glutathione) in ECB buffer (140 mM NaCl, 20 mM KCl, 20 mM HEPES-NaOH [pH=7.4], 5 mM glucose, 1 mM MgCl2, 1 mM CaCl2, 0.1 mg/ml bovine serum albumin).
The cells were harvested, washed once in ECB medium and resuspended to 500,000 cells/ml. 100 μl of cell suspension (corresponding to 5×10^4 cells) was then injected into the test plate containing MCH or MCH analogs, and the integrated light emission was recorded over 30 seconds, in 0.5 second units. 20 μL of lysis buffer (0.1% final Triton X-100 concentration) was then injected and the integrated light emission recorded over 10 seconds, in 0.5 second units. The “fractional response” values for each well were calculated by taking the ratio of the integrated response to the initial challenge to the total integrated luminescence including the Triton X-100 lysis response.

[3] = Table 3, N-methyl-amino acid analogs
[4] = Table 5, position 10 modification
[5] = Table 4, position 6 modification
[6] = Table 6, position 13 modification
[7] = Table 7, combinations and position 8

T1 sequence (Q99705 whole entry): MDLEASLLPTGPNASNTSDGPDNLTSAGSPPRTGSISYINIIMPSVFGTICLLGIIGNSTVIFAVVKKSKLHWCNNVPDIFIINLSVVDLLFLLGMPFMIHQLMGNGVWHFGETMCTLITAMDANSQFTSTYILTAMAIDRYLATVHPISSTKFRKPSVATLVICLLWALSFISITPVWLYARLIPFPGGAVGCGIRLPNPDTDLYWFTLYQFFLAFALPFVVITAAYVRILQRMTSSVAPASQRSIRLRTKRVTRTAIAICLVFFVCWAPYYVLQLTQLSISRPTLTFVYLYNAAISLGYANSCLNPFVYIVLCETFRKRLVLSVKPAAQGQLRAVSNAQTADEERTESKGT

Activity Activation % [2, 5]: 133%
SMILES: CSCC[C@@H]1NC(=O)[C@@H](NC(=O)[C@@H]2CCCN2C(C)=O)CSSC[C@@H](C(N)=O)NC(=O)[C@@H]2CCCN2C(=O)[C@H](CCCNC(=N)N)NC(=O)[C@H](Cc2ccc(O)cc2)NC(=O)[C@H](C(C)C)NC(=O)[C@H](CCCNC(=N)N)NC(=O)CNC(=O)[C@H](CC(C)C)NC1=O [compound 33]

Activity Activation % [2, 5]: 96%
SMILES: CSCC[C@@H]1NC(=O)[C@@H](NC(=O)[C@H](CC(N)=O)NC(C)=O)CSSC[C@@H](C(N)=O)NC(=O)[C@@H]2CCCN2C(=O)[C@H](CCCNC(=N)N)NC(=O)[C@H](Cc2ccc(O)cc2)NC(=O)[C@H](C(C)C)NC(=O)[C@H](CCCNC(=N)N)NC(=O)CNC(=O)[C@H](CC(C)C)NC1=O [compound 34]

Activity Activation % [2, 5]: 113%
SMILES: CSCC[C@@H]1NC(=O)[C@@H](NC(=O)[C@H](CCC(=O)O)NC(C)=O)CSSC[C@@H](C(N)=O)NC(=O)[C@@H]2CCCN2C(=O)[C@H](CCCNC(=N)N)NC(=O)[C@H](Cc2ccc(O)cc2)NC(=O)[C@H](C(C)C)NC(=O)[C@H](CCCNC(=N)N)NC(=O)CNC(=O)[C@H](CC(C)C)NC1=O [compound 36]

Activity Activation % [2, 4]: 106% | EC50 [2, 4]: 23 nM
SMILES: CSCC[C@@H]1NC(=O)[C@@H](NC(=O)[C@H](CCCNC(=N)N)NC(C)=O)CSSC[C@@H](C(N)=O)NC(=O)[C@@H]2CCCN2C(=O)[C@H](CCCNC(=N)N)NC(=O)[C@H](Cc2ccc(O)cc2)NC(=O)[C@H](C(C)C)NC(=O)[C@H](CCCNC(=N)N)NC(=O)[C@H](CC(N)=O)NC(=O)[C@H](CC(C)C)NC1=O [compound 51] (Ac-RCMLNRVYRPC-NH2; disulfide 2-11)

Activity Activation % [2, 4]: 104%
SMILES: CSCC[C@@H]1NC(=O)[C@@H](NC(=O)[C@H](CCCNC(=N)N)NC(C)=O)CSSC[C@@H](C(N)=O)NC(=O)[C@@H]2CCCN2C(=O)[C@H](CCCNC(=N)N)NC(=O)[C@H](Cc2ccc(O)cc2)NC(=O)[C@H](C(C)C)NC(=O)[C@H](CCCNC(=N)N)NC(=O)[C@H](CO)NC(=O)[C@H](CC(C)C)NC1=O [compound 52] (Ac-RCMLSRVYRPC-NH2; disulfide 2-11 (inferred))

Activity Activation % [2, 6]: 96%
SMILES: CSCC[C@@H]1NC(=O)[C@@H](NC(=O)[C@H](CCCNC(=N)N)NC(C)=O)CSSC[C@@H](C(N)=O)NC(=O)[C@@H]2CCCN2C(=O)[C@H](CCCNC(=N)N)NC(=O)[C@H](Cc2ccccc2)NC(=O)[C@H](C(C)C)NC(=O)[C@H](CCCNC(=N)N)NC(=O)CNC(=O)[C@H](CC(C)C)NC1=O [compound 62]

Further lines, the molecule ahead of its results:

SMILES: CSCC[C@@H]1NC(=O)[C@@H](NC(=O)[C@H](CCCNC(=N)N)NC(C)=O)CSSC[C@@H](C(N)=O)NC(=O)[C@@H]2CCCN2C(=O)[C@H](CCCNC(=N)N)NC(=O)[C@H](Cc2ccc(O)cc2)NC(=O)[C@H](C(C)C)NC(=O)[C@H](CCCNC(=N)N)NC(=O)CNC(=O)[C@H](CC(C)C)NC1=O [compound 7]
IC50 ([1]; Table 2, D-amino acid analogs): 0.5 nM | IC50 [1, 3]: 1.4 nM | IC50 [1, 4]: 0.5 nM | % Activation at 10 μM [2]: 123% | Activity Activation % ([2]; Table 2, D-amino acid analogs): 99% | EC50 ([2]; Table 2, D-amino acid analogs): 20 nM | Activity Activation % [2, 3]: 99% | EC50 [2, 3]: 20 nM | Activity Activation % [2, 5]: 99% | Activity Activation % [2, 4]: 99% | EC50 [2, 4]: 20 nM | Activity Activation % [2, 6]: 99% | EC50 [2, 6]: 20 nM | Activity Activation % [2, 7]: 99% | EC50 [2, 7]: 20 nM

SMILES: CSCC[C@@H]1NC(=O)[C@@H](NC(=O)[C@H](CCCNC(=N)N)NC(=O)[C@H](CC(C)C)NC(=O)[C@H](CCSC)NC(=O)[C@H](CC(=O)O)NC(=O)[C@H](Cc2ccccc2)NC(=O)[C@@H](N)CC(=O)O)CSSC[C@@H](C(=O)N[C@@H](Cc2c[nH]c3ccccc23)C(=O)N[C@@H](CCC(N)=O)C(=O)N[C@H](C(=O)O)C(C)C)NC(=O)[C@@H]2CCCN2C(=O)[C@H](CCCNC(=N)N)NC(=O)[C@H](Cc2ccc(O)cc2)NC(=O)[C@H](C(C)C)NC(=O)[C@H](CCCNC(=N)N)NC(=O)CNC(=O)[C@H](CC(C)C)NC1=O [compound 11]
% Activation at 10 μM [2]: 100% | Activity Activation % ([2]; Table 2, D-amino acid analogs): 100% | Activity Activation % [2, 3]: 100% | Activity Activation % [2, 5]: 100% | Activity Activation % [2, 4]: 100% | Activity Activation % [2, 6]: 100% | Activity Activation % [2, 7]: 100%

SMILES: CSCC[C@@H]1NC(=O)[C@@H](NC(=O)[C@H](C)NC(C)=O)CSSC[C@@H](C(N)=O)NC(=O)[C@@H]2CCCN2C(=O)[C@H](CCCNC(=N)N)NC(=O)[C@H](Cc2ccc(O)cc2)NC(=O)[C@H](C(C)C)NC(=O)[C@H](CCCNC(=N)N)NC(=O)CNC(=O)[C@H](CC(C)C)NC1=O [compound 31] (Ac-ACMLGRVYRPC-NH2; disulfide 2-11 (inferred))
Activity Activation % [2, 5]: 135%

SMILES: CSCC[C@@H]1NC(=O)[C@@H](NC(=O)[C@H](CO)NC(C)=O)CSSC[C@@H](C(N)=O)NC(=O)[C@@H]2CCCN2C(=O)[C@H](CCCNC(=N)N)NC(=O)[C@H](Cc2ccc(O)cc2)NC(=O)[C@H](C(C)C)NC(=O)[C@H](CCCNC(=N)N)NC(=O)CNC(=O)[C@H](CC(C)C)NC1=O [compound 35]
Activity Activation % [2, 5]: 120%

SMILES: CSCC[C@@H]1NC(=O)[C@@H](N)CSSC[C@@H](C(N)=O)NC(=O)[C@@H]2CCCN2C(=O)[C@H](CCCNC(=N)N)NC(=O)[C@H](Cc2ccc(O)cc2)NC(=O)[C@H](C(C)C)NC(=O)[C@H](CCCNC(=N)N)NC(=O)CNC(=O)[C@H](CC(C)C)NC1=O [compound 37]
Activity Activation % [2, 5]: 120%

SMILES: CSCC[C@@H]1NC(=O)[C@@H](NC(C)=O)CSSC[C@@H](C(N)=O)NC(=O)[C@@H]2CCCN2C(=O)[C@H](CCCNC(=N)N)NC(=O)[C@H](Cc2ccc(O)cc2)NC(=O)[C@H](C(C)C)NC(=O)[C@H](CCCNC(=N)N)NC(=O)CNC(=O)[C@H](CC(C)C)NC1=O [compound 38]
Activity Activation % [2, 5]: 82%

SMILES: CSCC[C@@H]1NC(=O)[C@@H](NC(=O)[C@@H](N)CCCNC(=N)N)CSSC[C@@H](C(N)=O)NC(=O)[C@@H]2CCCN2C(=O)[C@H](CCCNC(=N)N)NC(=O)[C@H](Cc2ccc(O)cc2)NC(=O)[C@H](C(C)C)NC(=O)[C@H](CCCNC(=N)N)NC(=O)CNC(=O)[C@H](CC(C)C)NC1=O [compound 39]
Activity Activation % [2, 5]: 106%

SMILES: CSCC[C@@H]1NC(=O)[C@@H](NC(=O)[C@H](CCCNC(=N)N)NC(C)=O)CSSC[C@@H](C(N)=O)NC(=O)[C@@H]2CCCN2C(=O)[C@H](CCCNC(=N)N)NC(=O)[C@H](Cc2ccc(O)cc2)NC(=O)[C@H](C(C)C)NC(=O)[C@H](CCCNC(=N)N)NC(=O)[C@H](C)NC(=O)[C@H](CC(C)C)NC1=O [compound 47] (Ac-RCMLARVYRPC-NH2; disulfide 2-11)
Activity Activation % [2, 4]: 104%

SMILES: CSCC[C@@H]1NC(=O)[C@@H](NC(=O)[C@H](CCCNC(=N)N)NC(C)=O)CSSC[C@@H](C(N)=O)NC(=O)[C@@H]2CCCN2C(=O)[C@H](CCCNC(=N)N)NC(=O)[C@H](Cc2ccc(O)cc2)NC(=O)[C@H](C(C)C)NC(=O)[C@H](CCCNC(=N)N)NC(=O)[C@H](CC(C)C)NC(=O)[C@H](CC(C)C)NC1=O [compound 48]
Activity Activation % [2, 4]: 106%
